Reference: US20250040543A1, “Preservative Composition” (ARXADA AG, priority 2021, published 2025)
Like-named read-outs stand apart in the source and are kept apart here.

Tests used:
Candida albicans = experiment: MIC and Synergy Index (Kull) of two-component compositions; format: cell-based; conditions: for MIC: Candida albicans
Procedure: (§1) A wide range of concentrations were tested against Pseudomonas aeruginosa, Staphylococcus aureus, Escherichia coli, and Candda albicans.
(§2) The lowest concentration of each mixture or single compound which prevents an observable level of growth was determined to be the minimum inhibitory concentration (MIC) value.
(§3) Serial dilutions of each mixture or single compound were prepared. Micro-organisms were inoculated into media: Nutrient Broth (bacteria) or Malt Extract Broth (yeast). The final concentrations of micro-organisms in media was approximately 10^5-6 CFU/ml. The inoculated media was introduced to each of the serial dilutions at a 1:1 ratio, and incubated at 30±1° C. for 24-48 hours.
(§4) The MICs for each mixture was compared with the MIC of each single compound alone.
(§5) In this study the end point is measured by the MIC.

[1] = tested on: Pseudomonas aeruginosa ATCC 9027; experiment: Preservation efficacy test in sterile distilled water, drop plate; format: cell-based; conditions: 7 days, Butyl Levulinate 0 ppm
Procedure: In the following example, the following test organisms were used: • Pseudomonas aeruginosa ATCC 9027 • Aspergillus brasiliensis ATCC 16404 [table] Bacteria were harvested and prepared in diluent (sterile distilled water) to obtain a final concentration of 1.0×10^6 to 5.0×10^6 cfu/ml. [table] […] Each sample was inoculated at t=0 with a known concentration of micro-organism. Each inoculated sample was then mixed until a homogenous mixture was obtained. […] The solution was left for 15 minutes. Subsequent dilutions were prepared by serial dilution of 0.1 ml into 0.9 ml of neutralising broth. Bacteria were serially diluted to 10^−4, Fungi were serially diluted to 10^−3. Each serial dilution was thoroughly mixed and 25 μl drops were aliquoted onto the surface of pre-prepared agar plates. Plates were prepared in sextupicate for each sample dilution. The agar plates were allowed to dry, then inverted and incubated under conditions appropriate for the test microorganisms. CFU/ml was calculated taking into account dilution factors. […] The lower and upper limits for drop plating were only employed on the highest and lowest dilution factor plates.

[2] = tested on: Aspergillus brasiliensis ATCC 16404; experiment: as above; format: cell-based; conditions: 7 days, Butyl Levulinate 0 ppm
Procedure: In the following example, the following test organisms were used: • Pseudomonas aeruginosa ATCC 9027 • Aspergillus brasiliensis ATCC 16404 [table] Mould strain spores were harvested (sterile distilled water+0.05% polysorbate 80) and treated to remove fungal hyphae. Mould strain spores were prepared in diluent (sterile distilled water) to obtain a final concentration of […]. [table] […] Each sample was inoculated at t=0 with a known concentration of micro-organism. Each inoculated sample was then mixed until a homogenous mixture was obtained. […] The solution was left for 15 minutes. Subsequent dilutions were prepared by serial dilution of 0.1 ml into 0.9 ml of neutralising broth. Bacteria were serially diluted to 10^−4, Fungi were serially diluted to 10^−3. Each serial dilution was thoroughly mixed and 25 μl drops were aliquoted onto the surface of pre-prepared agar plates. Plates were prepared in sextupicate for each sample dilution. The agar plates were allowed to dry, then inverted and incubated under conditions appropriate for the test microorganisms. CFU/ml was calculated taking into account dilution factors. […] The lower and upper limits for drop plating were only employed on the highest and lowest dilution factor plates.

Escherichia coli = experiment: MIC and Synergy Index (Kull) of two-component compositions; format: cell-based; conditions: for MIC: Escherichia coli
Procedure: as §1, §2, §3, §4
(§6) Synergy was determined using the Kull equation (F. C. Kull et. al., “Mixtures of Quaternary Ammonium Compounds and Long-chain Fatty Acids as Antifungal Agents”, Appl Microbiol. 1961 November; 9(6): 538-541), which calculates a Synergy Index (SI) according the following equation:
(§7) [formula] • wherein • QA=concentration of compound A in ppm, acting alone produced an end point, • Qa=concentration of compound A in ppm, in the mixture, which produced an end point, • QB=concentration of compound B in ppm, acting alone produced an end point, and • Qb=concentration of compound B in ppm, in the mixture, which produced an end point;
as §5

Staphylococcus aureus = experiment: as above; format: cell-based; conditions: for MIC: Staphylococcus aureus
Procedure: as §1, §2, §3, §4, §6, §7, §5

Pseudomonas aeruginosa = experiment: as above; format: cell-based; conditions: for MIC: Pseudomonas aeruginosa
Procedure: as §1, §2, §3, §4, §6, §7, §5

C. albicans = experiment: Preservation efficacy test in sterile distilled water, drop plate; format: cell-based, Candida albicans; conditions: 7 days, pH 7, Butyl Levulinate 0 ppm
Procedure: Yeast strains were harvested and prepared in diluent (sterile distilled water) to obtain a final concentration of 1.0×10^5 to 1.0×10^6 cfu/ml.
Preservation efficacy testing started at Day 0 (t=0). Each sample was inoculated at t=0 with a known concentration of micro-organism. Each inoculated sample was then mixed until a homogenous mixture was obtained. Inoculated samples were stored in the dark at 22.5±2.5° C. throughout the test period.
At the specified contact time of 7 days (t=7), test samples were deactivated by adding a 0.1 ml aliquot of the test sample to 0.9 ml of an appropriate neutralising broth. The solution was left for 15 minutes. Subsequent dilutions were prepared by serial dilution of 0.1 ml into 0.9 ml of neutralising broth. Bacteria were serially diluted to 10^−4, Fungi were serially diluted to 10^−3.
Each serial dilution was thoroughly mixed and 25 μl drops were aliquoted onto the surface of pre-prepared agar plates. Plates were prepared in sextupicate for each sample dilution.
The agar plates were allowed to dry, then inverted and incubated under conditions appropriate for the test microorganisms.
CFU/ml was calculated taking into account dilution factors. Colonies from the incubated plates were enumerated using the lower count limit of <10 CFU/ml and the upper count limit of >330 CFU/ml.
The lower and upper limits for drop plating were only employed on the highest and lowest dilution factor plates.
The test organisms were prepared and the method was performed according to the protocol of Example 1.

[3] = pH 7, Sodium Benzoate 10000 ppm
[4] = pH 7, Sodium Benzoate 15000 ppm
[5] = pH 7, Sodium Benzoate 20000 ppm
[6] = pH 7, Sodium Benzoate 25000 ppm
[7] = pH 8, Sodium Benzoate 10000 ppm
[8] = pH 8, Sodium Benzoate 15000 ppm
[9] = pH 8, Sodium Benzoate 20000 ppm
[10] = pH 8, Sodium Benzoate 25000 ppm
[11] = Sodium benzoate alone, or its concentration in the mixture with butyl levulinate
[12] = Sodium benzoate alone, or its concentration in the mixture with ethyl levulinate
[13] = read-out: MIC (ppm) to inhibit growth: DHA
[14] = Lactic Acid alone, or its concentration in the mixture with ethyl levulinate, read-out: MIC (ppm) to inhibit growth: Lactic Acid
[15] = ethyl levulinate alone, or its concentration in the mixture with Sodium benzoate, read-out: MIC (ppm) to inhibit growth: Ethyl levulinate
[16] = ethyl levulinate alone, or its concentration in the mixture with Sodium Pyrithione
[17] = Sodium Pyrithione alone, or its concentration in the mixture with ethyl levulinate
[18] = Sodium pyrithione alone, or its concentration in the mixture with butyl levulinate
[19] = pH 7, Potassium Sorbate 5000 ppm
[20] = pH 7, Potassium Sorbate 10000 ppm
[21] = pH 7, Potassium Sorbate 15000 ppm
[22] = pH 7, Potassium Sorbate 20000 ppm
[23] = pH 7, Potassium Sorbate 25000 ppm
[24] = read-out: MIC (ppm) to inhibit growth: Potassium Sorbate
[25] = ADBAC alone, or its concentration in the mixture with ethyl levulinate

O=c1[nH]sc2ccccc12 [BIT, benzisothiazolinone, reference compound]
MIC (ppm) to inhibit growth: BIT (Candida albicans; BIT alone, or its concentration in the mixture with butyl levulinate): 31 ppm

O=C([O-])c1ccccc1.[Na+] [Sodium Benzoate, sodium benzoate, reference compound]
Log reduction ([1]; pH 7, Sodium Benzoate 5000 ppm): 1.73
Log reduction [1, 3]: >4.90
Log reduction [1, 4]: >4.90
Log reduction [1, 5]: >4.90
Log reduction [1, 6]: >4.90
Log reduction ([1]; pH 8, Sodium Benzoate 5000 ppm): 1.54
Log reduction [1, 7]: 1.36
Log reduction [1, 8]: 1.57
Log reduction [1, 9]: 3.20
Log reduction [1, 10]: >4.57
Log reduction ([2]; pH 7, Sodium Benzoate 5000 ppm): 2.09
Log reduction [2, 3]: 2.14
Log reduction [2, 4]: 2.20
Log reduction [2, 5]: 2.33
Log reduction [2, 6]: 3.11
Log reduction ([2]; pH 8, Sodium Benzoate 5000 ppm): 0.33
Log reduction [2, 7]: 0.70
Log reduction [2, 8]: 0.64
Log reduction [2, 9]: 0.60
Log reduction [2, 10]: 0.55
MIC (ppm) to inhibit growth: Sodium benzoate (Escherichia coli; [11]): 7500 ppm
MIC (ppm) to inhibit growth: Sodium benzoate (Escherichia coli; [12]): 7500 ppm
MIC (ppm) to inhibit growth: Sodium benzoate (Staphylococcus aureus; [11]): 15000 ppm
MIC (ppm) to inhibit growth: Sodium benzoate (Staphylococcus aureus; [12]): 15000 ppm
MIC (ppm) to inhibit growth: Sodium benzoate (Candida albicans; [11]): 7500 ppm
MIC (ppm) to inhibit growth: Sodium benzoate (Candida albicans; [12]): 7500 ppm

CC(=O)C1C(=O)C=C(C)OC1=O (stereo not drawn) [DHA, dehydroacetic acid, reference compound]
MIC (Escherichia coli; [13]): 5000 µg/mL
MIC (Candida albicans; [13]): 250 µg/mL

poly(hexamethylene) biguanide [PHMB, reference compound]
MIC (ppm) to inhibit growth: PHMB (Candida albicans; PHMB alone, or its concentration in the mixture with butyl levulinate): 313 ppm

CCCCNC(=O)OCC#CI [IPBC, 3-Iodo-2-propynyl butylcarbamate, reference compound]
Log reduction ([2]; pH 7, IPBC 100 ppm): 1.21
Log reduction ([2]; pH 7, IPBC 250 ppm): 0.77
Log reduction ([2]; pH 7, IPBC 500 ppm): 0.71
Log reduction ([2]; pH 7, IPBC 750 ppm): 0.57
Log reduction ([2]; pH 7, IPBC 1000 ppm): 0.85

CC(O)C(=O)O (stereo not drawn) [Lactic Acid, lactic acid, reference compound]
MIC (Pseudomonas aeruginosa; Lactic Acid alone, or its concentration in the mixture with butyl levulinate, read-out: MIC (ppm) to inhibit growth: Lactic Acid): 625 µg/mL
MIC (Staphylococcus aureus; [14]): 156 µg/mL
MIC (Candida albicans; [14]): 10000 µg/mL

CCOC(=O)CCC(C)=O [Ethyl levulinate, ethyl levulinate]
MIC (Escherichia coli; [15]): 25000 µg/mL
MIC (Pseudomonas aeruginosa; ethyl levulinate alone, or its concentration in the mixture with ADBAC, read-out: MIC (ppm) to inhibit growth: Ethyl levulinate): 12500 µg/mL
MIC (ppm) to inhibit growth: Ethyl levulinate (Pseudomonas aeruginosa; [16]): 12500 ppm
MIC (Staphylococcus aureus; ethyl levulinate alone, or its concentration in the mixture with Lactic Acid, read-out: MIC (ppm) to inhibit growth: Ethyl levulinate): 12500 µg/mL
MIC (Staphylococcus aureus; ethyl levulinate alone, or its concentration in the mixture with Potassium Sorbate, read-out: MIC (ppm) to inhibit growth: Ethyl levulinate): 12500 µg/mL
MIC (Staphylococcus aureus; [15]): 25000 µg/mL
MIC (Candida albicans; [15]): 25000 µg/mL
MIC (ppm) to inhibit growth: Ethyl levulinate (Candida albicans; ethyl levulinate alone, or its concentration in the mixture with ADBAC): 25000 ppm
MIC (ppm) to inhibit growth: Ethyl levulinate (Candida albicans; ethyl levulinate alone, or its concentration in the mixture with Lactic Acid): 25000 ppm
MIC (ppm) to inhibit growth: Ethyl levulinate (Candida albicans; ethyl levulinate alone, or its concentration in the mixture with Potassium Sorbate): 25000 ppm
MIC (ppm) to inhibit growth: Ethyl levulinate (Candida albicans; [16]): 25000 ppm

[Na+].[O-][n+]1ccccc1[S-] [Sodium Pyrithione, sodium pyrithione, reference compound]
MIC (ppm) to inhibit growth: Sodium Pyrithione (Pseudomonas aeruginosa; [17]): 63 ppm
MIC (ppm) to inhibit growth: Sodium Pyrithione (Pseudomonas aeruginosa; [18]): 63 ppm
MIC (ppm) to inhibit growth: Sodium Pyrithione (Candida albicans; [17]): 31 ppm
MIC (ppm) to inhibit growth: Sodium Pyrithione (Candida albicans; [18]): 16 ppm

C/C=C/C=C/C(=O)[O-].[K+] [Potassium Sorbate, potassium sorbate, reference compound]
Log reduction [1, 19]: <0.03
Log reduction [1, 20]: <0.03
Log reduction [1, 21]: <0.03
Log reduction [1, 22]: >4.55
Log reduction [1, 23]: >4.55
Log reduction ([1]; pH 8, Potassium Sorbate 5000 ppm): <0.33
Log reduction ([1]; pH 8, Potassium Sorbate 10000 ppm): <0.33
Log reduction ([1]; pH 8, Potassium Sorbate 15000 ppm): <0.33
Log reduction ([1]; pH 8, Potassium Sorbate 20000 ppm): <0.33
Log reduction ([1]; pH 8, Potassium Sorbate 25000 ppm): <0.33
Log reduction [2, 19]: 0.58
Log reduction [2, 20]: 0.67
Log reduction [2, 21]: 0.45
Log reduction [2, 22]: 0.64
Log reduction [2, 23]: 0.52
Log reduction (C. albicans; Potassium Sorbate 5000 ppm): 1.01
Log reduction (C. albicans; Potassium Sorbate 10000 ppm): 0.72
Log reduction (C. albicans; Potassium Sorbate 15000 ppm): 0.72
Log reduction (C. albicans; Potassium Sorbate 20000 ppm): 0.92
Log reduction (C. albicans; Potassium Sorbate 25000 ppm): 0.83
MIC (Staphylococcus aureus; [24]): 156 µg/mL
MIC (Candida albicans; [24]): 2500 µg/mL
MIC (ppm) to inhibit growth: Potassium Sorbate (Candida albicans; Potassium Sorbate alone, or its concentration in the mixture with butyl levulinate): 2500 ppm

alkyldimethylbenzylammonium chloride [ADBAC]
MIC (ppm) to inhibit growth: ADBAC (Pseudomonas aeruginosa; [25]): 16 ppm
MIC (ppm) to inhibit growth: ADBAC (Candida albicans; [25]): 8 ppm
